One experiment concerns the target T1, myo-inositol transporter (Rattus norvegicus, UniProt Q80WA5).
T1 construct: PC12 cells were gently detached and maintained in a suspension culture; endogenous in cells; host or cells: PC12
T1 sequence (Q80WA5 1-718): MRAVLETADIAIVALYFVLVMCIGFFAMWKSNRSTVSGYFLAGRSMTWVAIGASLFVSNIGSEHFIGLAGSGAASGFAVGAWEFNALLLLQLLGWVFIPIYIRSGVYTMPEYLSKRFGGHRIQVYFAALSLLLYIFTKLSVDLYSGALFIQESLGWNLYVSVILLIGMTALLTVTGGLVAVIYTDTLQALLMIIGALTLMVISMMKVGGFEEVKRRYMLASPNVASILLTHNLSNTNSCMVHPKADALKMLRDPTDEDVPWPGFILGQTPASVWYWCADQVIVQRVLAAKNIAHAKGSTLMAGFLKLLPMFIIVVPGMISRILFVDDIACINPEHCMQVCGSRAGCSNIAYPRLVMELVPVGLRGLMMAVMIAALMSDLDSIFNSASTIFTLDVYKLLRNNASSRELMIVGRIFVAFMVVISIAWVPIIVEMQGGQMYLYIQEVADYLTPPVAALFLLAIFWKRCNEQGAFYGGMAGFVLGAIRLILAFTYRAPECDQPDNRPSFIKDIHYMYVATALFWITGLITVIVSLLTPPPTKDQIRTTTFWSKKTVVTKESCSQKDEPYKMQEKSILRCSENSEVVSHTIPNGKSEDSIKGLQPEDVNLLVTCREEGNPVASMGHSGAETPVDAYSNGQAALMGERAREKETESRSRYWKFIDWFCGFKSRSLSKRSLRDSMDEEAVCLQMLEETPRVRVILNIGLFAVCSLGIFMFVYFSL
Briefly: [3H]myo-inositol uptake by the myo-inositol transporter in PC12 cells. The format is cell-based. Conditions: for Maximal Transport Rate Vmax: in presence of fixed 1 mM analog. As to the method:
To determine if the effect of the fluoro-myo-inositol analogs might be mediated by the blockade of the myo-inositol transporter, which is responsible for uptake and accumulation of myo-inositol into the cell, the ability of these two compounds to block [^3 H]myo-inositol transport was studied directly.
The uptake of [^3 H]myo-inositol by the myo-inositol transporter was determined as follows: PC12 cells were gently detached and maintained in a suspension culture in RPMI medium (both myo-inositol and serum free) at 37° C. [^3 H]myo-inositol was added to this culture at a concentration of 1μCi/ml. Aliquots of this suspension were removed at the indicated time, diluted in 10 volumes of ice-cold PBS containing 10 mM unlabelled myo-inositol to stop the uptake process, centrifuged at 4° C. for 20 minutes at 50xg. The cell pellet, which contained the transported [^3 H]myo-inositol, was dissolved in dilute NaOH and the radioactivity quantified by liquid scintillation counting.
The […] and Vmax of myoinositol were determined from LineweaverBurke plots
of the uptake of [^3 H]myoinositol (25 nM) in the presence of
increasing concentrations of unlabeled myoinositol in PC12 cells. The Ki
of the two fluoromyo-inositol analogs was determined by conducting the
uptake studies in the presence of a fixed concentration (1 mM) of each

The test system of experiment [1] is PC12 cells. Briefly: Cell growth inhibition in PC12 cells (cell counts; dose response and time course). It counts as cell-based, rat. To be noted: dose response. As to the method: The biological effects of the 3-fluoro and 1-fluoro myo-inositol analogs were tested in PC12 cells, a cell line derived from a rat pheochromocytoma, which has been widely used to study the effects of various growth factors and differentiation promoters as further described by Green, L. A., et al., Adv. Cell Neurobiol., 3, 373-414, (1982), the disclosure of which is incorporated herein by reference.
PC12 cells were seeded at a density of 3.3×10^5 cells/cm^2 in plastic culture dishes and grown at 37° C. in a humidified atmosphere of 95% air/5% CO2. The basal medium used in these experiments was RPMI-1640 medium (Gibco). In some experiments a specially formulated inositol-free RPMI-1640 medium (Gibco) was used. This basal medium was supplemented with either normal or extensively dialyzed horse serum (10%) and fetal calf serum (5%) (Gibco). […]
A dose-response study was performed by growing cells in the presence of certain concentrations of the 3-fluoro and the 1-fluoro-myo-inositol analogs. At the end of five days, the cells were counted by the means described hereinabove.
The time course effect on cell replication was then examined, using the concentration of 1-fluoro and 3-fluoro myo-inositol analogs determined to have maximal effects in the dose response study of Table 1. […]

For experiment [2], the system named is PC12 cells. Put plainly: Effects of fluoroinositol treatment on cell size (protein per cell, Lowry). It counts as cell-based, rat. From the text: As cells grow in culture, the size of an individual cell varies in a fairly predictable way. The size of a cell can be expressed as the amount of protein present per cell. […] Immediately after mitosis, the cell size drops considerably, frequently to levels approximately half of the pre-mitotic level.
By investigating the size of a cell, it is possible to determine at which point within the cell cycle inhibitors of cell replication are exerting their effects. Accordingly, we investigated the effect of the 1- and 3-fluoro-myo-inositol analogs on the size of cells chronically treated with such analogs.
Cells were grown and treated with 1- and 3-fluoro-myo-inositol analogs as described in Example XIII. On the days indicated, cells were gently harvested without disruption, and the number of cells counted in triplicate in a cell counting chamber. Following determination of the number of cells per sample, the remainder of the cells were pelleted in a microcentrifuge as described hereinabove, and the protein in the sample was determined by the method of Lowry. Thus, it was possible to derive from these two data sets the amount of protein per cell, which is expressed as nanograms of protein per cell, as indicated in Table 3: […]

Experiment [3] concerns PC12 cells. Briefly: Uptake and incorporation of [3H]myo-inositol into PC12 cells following treatment with inositol analogs. The format is cell-based, rat. As to the method: Since myo-inositol must be incorporated into the cellular plasma membranes in order for it to serve its role as a second messenger, we therefore verified the ability of the 1- and 3-fluoro-myo-inositol analogs to perturb the incorporation of myo-inositol into cellular plasma membranes by the enzyme CDP-diacylglycerol-inositol phosphatidyltransferase (phosphatidylinositol synthetase).
These tests were conducted by treating cells for either 1, 3, 5, or 7 days with the myo-inositol analogs, followed by a brief exposure to radiolabeled myo-inositol ([^3 H]myo-inositol). The extent of incorporation of tritiated myo-inositol would, therefore, reflect the extent to which phosphatidylinositol and its phosphorylated analogs are deficient in the cellular plasma membranes.
Cells were grown as described hereinabove. Twenty-four hours after plating, the medium was changed and cells were exposed to either inositol free medium (Control 2) or medium containing either the 1- or the 3-fluoro-myo-inositol analog. […] Samples from both the pellet and supernatant were then obtained and the levels of radioactivity in each were determined. Radioactivity in the supernatant corresponded to the amount of free [^3 H]myo-inositol in the cytoplasm of the cell, whereas the radioactivity present in the TCA-precipated pellet represented [^3 H]myo-inositol incorporated into the cellular plasma membranes. […]

With `O[C@@H]1[C@@H](O)[C@@H](O)[C@@H](F)[C@H](O)[C@H]1O` [1-deoxy-1-fluoroinositol, 1-deoxy-1-fluoro-myo-inositol], on myo-inositol transporter, the “Maximal Transport Rate Vmax” value amounted to 2.27 nmol/mg/h. Further, the “potency in inhibiting cell replication relative to the 3-fluoro-myo-inositol analog” value in the experiment on PC12 cells [1] is “about five-fold more potent”; with PC12 cells [1] (listed as I-fluoro-myo-inositol analog), 5 fold. The “plateau of protein per cell relative to protein levels on day one” value in the experiment on PC12 cells [2] is recorded as “approximately twice”. Further, the “increase in the number of unoccupied sites for myo-inositol in the cellular plasma membranes” value in the experiment on PC12 cells [3] (after several days of exposure) came to 10 fold.

For `O[C@@H]1[C@@H](O)[C@H](O)[C@@H](F)[C@@H](O)[C@H]1O` [3-deoxy-3-fluoroinositol, 3-deoxy-3-fluoro-myo-inositol], the “Maximal Transport Rate Vmax” value on myo-inositol transporter is 2.27 nmol/mg/h. In addition, the “level of radioactively-labeled myo-inositol incorporated into the cellular plasma membranes” value in the experiment with PC12 cells [3] (PC12 cells, result in words) is recorded as “quite low”.

Regarding `O[C@H]1[C@H](O)[C@@H](O)[C@H](O)[C@@H](O)[C@H]1O` [Myo-inositol, myo-inositol], on myo-inositol transporter (Lineweaver-Burke plots, [3H]myo-inositol 25 nM with increasing unlabeled myo-inositol), the “Affinity Constant K (Ka)” value is 45 µM.

For the origin of these results see patent US5053399A, “Myo-inositol analogs and methods for their use” (University of Pittsburgh, priority 1990, dated 1991).
